Source: patent US12479834B2, “Phenol compound or salt thereof” (TAIHO PHARMACEUTICAL CO., LTD., priority 2019, dated 2025)

Legend:
G12C K-Ras4B (1-169) = molecular target: T1, G12C K-Ras4B (1-169) (Homo sapiens, UniProt P01116, G12C); test: Binding to KRAS G12C mutant, compound binding rate by LC-MS; conditions: final compound concentration 2 μM, 1 μM protein, 2 hours at 25° C.
T1 construct: G12C K-Ras4B (1-169) protein, which was a KRAS G12C mutant; His tag (N, cleaved yes); made in house; host or cells: E. coli BL21 (DE3)
In short: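 Covalent labelling at 2 μM final compound on a mix of 1 μM each wild-type and G12C K-Ras4B (1-169) (E. coli-expressed, tag removed) in 1×TBS, 0.1 mM TCEP, 2 h at 25° C., quenched with formic acid. Intact-protein ESI Q-TOF LC-MS; binding rate from adduct vs unbound protein signal, graded A–E in 20% bands.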

KRAS G12C mutant = molecular target: T2, KRAS G12C mutant (Homo sapiens, UniProt P01116, G12C); test: Inhibition of SOS1-mediated nucleotide (GDP-GTP) exchange reaction of KRAS G12C mutant, BODIPY FL GDP fluorescence; type: biochemical; conditions: preincubated 25° C. 4 hours with 25 nM KRAS G12C bound with BODIPY FL GDP; SOS1 100 nM, GppNHp 1 μM, 30 minutes
T2 construct: 50 μM G12C K-Ras4B (1-169) protein and 1 mM BODIPY® FL GDP; His tag (N, cleaved yes); made in house; host or cells: E. coli BL21 (DE3)
In short: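 KRAS G12C (1-169) loaded with BODIPY FL GDP (25 nM) was preincubated with compound (5% DMSO) for 4 h at 25 °C. Exchange then ran 30 min with SOS1 (564-1049, 100 nM) and 1 µM GppNHp. IC50 came from the 485/520 nm fluorescence change, normalized to DMSO and no-GppNHp controls.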

With `C=CC(=O)N1CC(NC(=O)c2ccc(CNc3cc(C(C)C)c(Cl)cc3O)o2)C1` [Example 48, N-(1-Acryloylazetidin-3-yl)-5-(((4-chloro-2-hydroxy-5-isopropylphenyl)amino)methyl)furan-2-carboxamide] the “binding rate for G12C K-Ras4B (1-169)” value (G12C K-Ras4B (1-169)) was “D (20% or more and less than 40%)” and the IC50 (KRAS G12C mutant) was 3970 nM.
In the case of `C=CC(=O)N1CC(NC(=O)c2cnc(CCc3cc(C(C)(C)C)c(Cl)cc3O)n2C)C1` [Example 90, N-(1-Acryloylazetidin-3-yl)-2-(5-(tert-butyl)-4-chloro-2-hydroxyphenethyl)-1-methyl-1H-imidazole-5-carboxamide], the “binding rate for G12C K-Ras4B (1-169)” value (G12C K-Ras4B (1-169)) is reported as “D (20% or more and less than 40%)” and the IC50 (KRAS G12C mutant) is reported as 549 nM.
With `C=CC(=O)N1CC(NC(=O)c2ccc(CNc3ccc(Cl)c(C(C)(C)C)c3)o2)C1` [Reference Example2, N-(1-Acryloylazetidin-3-yl)-5-(((3-(tert-butyl)-4-chlorophenyl)amino)methyl)furan-2-carboxamide, reference compound] the “binding rate for G12C K-Ras4B (1-169)” value (G12C K-Ras4B (1-169)) was “E (less than 20%)” and the IC50 (KRAS G12C mutant) was > 10000 nM.
`C=CC(=O)N1CC(NC(=O)c2cccc(CNc3cc(C(C)(C)C)c(Cl)cc3O)c2)C1` [Example 2, N-(1-Acryloylazetidin-3-yl)-3-(((5-(tert-butyl)-4-chloro-2-hydroxyphenyl)amino)methyl)benzamide] was tested, and the “binding rate for G12C K-Ras4B (1-169)” value (G12C K-Ras4B (1-169)) was “B (60% or more and less than 80%)” and the IC50 (KRAS G12C mutant) was 815 nM.
For `C=CC(=O)N1CC(NC(=O)c2ncc(CNc3cc(C(C)(C)C)c(Cl)cc3O)o2)C1` [Example 12, N-(1-Acryloylazetidin-3-yl)-5-(((5-(tert-butyl)-4-chloro-2-hydroxyphenyl)amino)methyl)oxazole-2-carboxamide], the “binding rate for G12C K-Ras4B (1-169)” value (G12C K-Ras4B (1-169)) was “C (40% or more and less than 60%)” and the IC50 (KRAS G12C mutant) was 954 nM.
`C=CC(=O)N1CC(NC(=O)c2ccc(CNc3cc(C(C)(C)C)c(Cl)cc3O)s2)C1` [Example 7, N-(1-Acryloylazetidin-3-yl)-5-(((5-(tert-butyl)-4-chloro-2-hydroxyphenyl)amino)methyl)thiophene-2-carboxamide] was tested, and the “binding rate for G12C K-Ras4B (1-169)” value (G12C K-Ras4B (1-169)) was “A (80% or more)” and the IC50 (KRAS G12C mutant) was 1510 nM.
For `C=CC(=O)N1CC(NC(=O)c2cnc(CNc3cc(C(=C)C(F)(F)F)c(Cl)cc3O)n2C)C1` [Example 57, N-(1-Acryloylazetidin-3-yl)-2-(((4-chloro-2-hydroxy-5-(3,3,3-trifluoroprop-1-en-2-yl)phenyl)amino)methyl)-1-methyl-1H-imidazole-5-carboxamide], the “binding rate for G12C K-Ras4B (1-169)” value (G12C K-Ras4B (1-169)) was “D (20% or more and less than 40%)” and the IC50 (KRAS G12C mutant) was 522 nM.
`C=CC(=O)N1CC(NC(=O)c2c(C(F)(F)F)nc(CNc3cc(C(C)(C)C)c(C)cc3O)n2C(C)C)C1` [Example 77, N-(1-Acryloylazetidin-3-yl)-2-(((5-(tert-butyl)-2-hydroxy-4-methylphenyl)amino)methyl)-1-isopropyl-4-(trifluoromethyl)-1H-imidazole-5-carboxamide] was tested, and the “binding rate for G12C K-Ras4B (1-169)” value (G12C K-Ras4B (1-169)) was “D (20% or more and less than 40%)” and the IC50 (KRAS G12C mutant) was 240 nM.
With `C=CC(=O)N1CC(N(C)C(=O)c2coc(CNc3cc(C(C)(C)C)c(Cl)cc3O)c2)C1` [Example 33, N-(1-Acryloylazetidin-3-yl)-5-(((5-(tert-butyl)-4-chloro-2-hydroxyphenyl)amino)methyl)-N-methylfuran-3-carboxamide] the “binding rate for G12C K-Ras4B (1-169)” value (G12C K-Ras4B (1-169)) was “E (less than 20%)” and the IC50 (KRAS G12C mutant) was 1490 nM.
With `C=CC(=O)N1CC(NC(=O)c2nc(CNc3cc(C(C)(C)C)c(Cl)cc3O)cn2C)C1` [Example 19, N-(1-Acryloylazetidin-3-yl)-4-(((5-(tert-butyl)-4-chloro-2-hydroxyphenyl)amino)methyl)-1-methyl-1H-imidazole-2-carboxamide] the “binding rate for G12C K-Ras4B (1-169)” value (G12C K-Ras4B (1-169)) was “A (80% or more)” and the IC50 (KRAS G12C mutant) was 233 nM.
`C=CC(=O)N1CC(NC(=O)c2c(C)nc(C(O)c3cc(C(C)(C)C)c(F)cc3O)n2C)C1` (centres unmarked) [Example 93, N-(1-Acryloylazetidin-3-yl)-2-((5-(tert-butyl)-4-fluoro-2-hydroxyphenyl) (hydroxy)methyl)-1,4-dimethyl-1H-imidazole-5-carboxamide] was tested, and the “binding rate for G12C K-Ras4B (1-169)” value (G12C K-Ras4B (1-169)) was “E (less than 20%)” and the IC50 (KRAS G12C mutant) was 500 nM.
For `C=CC(=O)N1CC(NC(=O)c2nc(CNc3cc(C(C)(C)C)c(Cl)cc3O)co2)C1` [Example 14, N-(1-Acryloylazetidin-3-yl)-4-(((5-(tert-butyl)-4-chloro-2-hydroxyphenyl)amino)methyl)oxazole-2-carboxamide], the “binding rate for G12C K-Ras4B (1-169)” value (G12C K-Ras4B (1-169)) was “A (80% or more)” and the IC50 (KRAS G12C mutant) was 420 nM.
With `C=CC(=O)N1CC(NC(=O)c2c(I)nc(CNc3cc(C(C)(C)C)c(Cl)cc3O)n2C)C1` [Example 27, N-(1-Acryloylazetidin-3-yl)-2-(((5-(tert-butyl)-4-chloro-2-hydroxyphenyl)amino)methyl)-4-iodo-1-methyl-1H-imidazole-5-carboxamide] the “binding rate for G12C K-Ras4B (1-169)” value (G12C K-Ras4B (1-169)) was “A (80% or more)” and the IC50 (KRAS G12C mutant) was 16 nM.
For `C=CC(=O)N1CC(NC(=O)c2cn(C)c(CNc3cc(C(C)(C)C)c(Cl)cc3O)n2)C1` [Example 25, N-(1-Acryloylazetidin-3-yl)-2-(((5-(tert-butyl)-4-chloro-2-hydroxyphenyl)amino)methyl)-1-methyl-1H-imidazole-4-carboxamide], the “binding rate for G12C K-Ras4B (1-169)” value (G12C K-Ras4B (1-169)) was “E (less than 20%)” and the IC50 (KRAS G12C mutant) was 4680 nM.
For `C=CC(=O)N1CC(NC(=O)c2cnc(CNc3cc(S(F)(F)(F)(F)F)c(Cl)cc3O)n2C)C1` [Example 58, N-(1-Acryloylazetidin-3-yl)-2-(((4-chloro-2-hydroxy-5-(pentafluoro-λ6-sulfaneyl)phenyl)amino)methyl)-1-methyl-1H-imidazole-5-carboxamide], the “binding rate for G12C K-Ras4B (1-169)” value (G12C K-Ras4B (1-169)) was “D (20% or more and less than 40%)” and the IC50 (KRAS G12C mutant) was 995 nM.
With `C=CC(=O)N1CC(NC(=O)c2cnc(C(O)c3cc(C(C)(C)C)c(Cl)cc3O)n2C)C1` (centres unmarked) [Example 98, N-(1-Acryloylazetidin-3-yl)-2-((5-(tert-butyl)-4-chloro-2-hydroxyphenyl) (hydroxy)methyl)-1-methyl-1H-imidazole-5-carboxamide] the “binding rate for G12C K-Ras4B (1-169)” value (G12C K-Ras4B (1-169)) was “B (60% or more and less than 80%)” and the IC50 (KRAS G12C mutant) was 205 nM.
In the case of `C=CC(=O)N1CC(NC(=O)c2cnc(CNc3cc(C(C)(C)C)c(C=C)cc3O)n2C)C1` [Example 69, N-(1-Acryloylazetidin-3-yl)-2-(((5-(tert-butyl)-2-hydroxy-4-vinylphenyl)amino)methyl)-1-methyl-1H-imidazole-5-carboxamide], the “binding rate for G12C K-Ras4B (1-169)” value (G12C K-Ras4B (1-169)) is reported as “B (60% or more and less than 80%)” and the IC50 (KRAS G12C mutant) is reported as 89 nM.
For `CN(C)C/C=C/C(=O)N1CC(N(C)C(=O)c2ccc(CNc3cc(C(C)(C)C)c(Cl)cc3O)o2)C1` [Example 87, (E)-5-(((5-(tert-Butyl)-4-chloro-2-hydroxyphenyl)amino)methyl)-N-(1-(4-(dimethylamino)but-2-enoyl)azetidin-3-yl)-N-methylfuran-2-carboxamide], the “binding rate for G12C K-Ras4B (1-169)” value (G12C K-Ras4B (1-169)) was “A (80% or more)” and the IC50 (KRAS G12C mutant) was 193 nM.
In the case of `C=CC(=O)N1CC(NC(=O)c2cnc(CNc3cc(C(C)(C)C)c(Cl)cc3O)[nH]2)C1` [Example 26, N-(1-Acryloylazetidin-3-yl)-2-(((5-(tert-butyl)-4-chloro-2-hydroxyphenyl)amino)methyl)-1H-imidazole-5-carboxamide], the “binding rate for G12C K-Ras4B (1-169)” value (G12C K-Ras4B (1-169)) is reported as “A (80% or more)” and the IC50 (KRAS G12C mutant) is reported as 212 nM.
